Measured values published in publication PMC9963398, “Discovery of New Quinolone-Based Diarylamides as Potent B-RAF^V600E/C-RAF Kinase Inhibitors Endowed with Promising In Vitro Anticancer Activity” (International Journal of Molecular Sciences, 2023).

Experiments:
SNB-19 = experiment: NCI-60 five-dose SRB assay; type: cell-based; conditions: Homo sapiens; SNB-19, CNS cancer, five-dose test
Experimental: (§1) The anticancer screening of target compounds over a full panel of 60 human cancer cell lines was carried out using Sulforhodamine B (SRB) assay at the National Cancer Institute (NCI), Bethesda, Maryland, USA, employing the standard protocol.

HL-60(TB) = experiment: NCI-60 five-dose SRB assay; type: cell-based; conditions: Homo sapiens, Leukemia, five-dose test
Experimental: as §1

SW-620 = experiment: NCI-60 five-dose SRB assay; type: cell-based; conditions: Homo sapiens; SW-620, Colon cancer, five-dose test
Experimental: as §1

DU-145 = experiment: NCI-60 five-dose SRB assay; type: cell-based; conditions: Homo sapiens; DU-145, Prostate cancer, five-dose test
Experimental: as §1

KM12 = experiment: NCI-60 five-dose SRB assay; type: cell-based; conditions: Homo sapiens; KM12, Colon cancer, five-dose test
Experimental: as §1

RPMI-8226 = experiment: NCI-60 five-dose SRB assay; type: cell-based; conditions: Homo sapiens; RPMI-8226, Leukemia, five-dose test
Experimental: as §1

HOP-92 = experiment: NCI-60 five-dose SRB assay; type: cell-based; conditions: Homo sapiens; HOP-92, NSCL cancer, five-dose test
Experimental: as §1

TK-10 = experiment: NCI-60 five-dose SRB assay; type: cell-based; conditions: Homo sapiens; TK-10, Renal cancer, five-dose test
Experimental: as §1

SK-MEL-2 = experiment: NCI-60 five-dose SRB assay; type: cell-based; conditions: Homo sapiens; SK-MEL-2, Melanoma, five-dose test
Experimental: as §1

A549/ATCC = experiment: NCI-60 five-dose SRB assay; type: cell-based; conditions: Homo sapiens, NSCL cancer, five-dose test
Experimental: as §1

NCI-H322M = experiment: NCI-60 five-dose SRB assay; type: cell-based; conditions: Homo sapiens, NSCL cancer, five-dose test
Experimental: as §1

ACHN = experiment: NCI-60 five-dose SRB assay; type: cell-based; conditions: Homo sapiens, Renal cancer, five-dose test
Experimental: as §1

M14 = experiment: NCI-60 five-dose SRB assay; type: cell-based; conditions: Homo sapiens; M14, Melanoma, five-dose test
Experimental: as §1

LOX IMVI = experiment: NCI-60 five-dose SRB assay; type: cell-based; conditions: Homo sapiens, Melanoma, five-dose test
Experimental: as §1

BT-549 = experiment: NCI-60 five-dose SRB assay; type: cell-based; conditions: Homo sapiens; BT-549, Breast cancer, five-dose test
Experimental: as §1

SF-268 = experiment: NCI-60 five-dose SRB assay; type: cell-based; conditions: Homo sapiens; SF-268, CNS cancer, five-dose test
Experimental: as §1

SK-MEL-5 = experiment: NCI-60 five-dose SRB assay; type: cell-based; conditions: Homo sapiens; SK-MEL-5, Melanoma, five-dose test
Experimental: as §1

NCI-H226 = experiment: NCI-60 five-dose SRB assay; type: cell-based; conditions: Homo sapiens; NCI-H226, NSCL cancer, five-dose test
Experimental: as §1

HOP-62 = experiment: NCI-60 five-dose SRB assay; type: cell-based; conditions: Homo sapiens; HOP-62, NSCL cancer, five-dose test
Experimental: as §1

IGROV1 = experiment: NCI-60 five-dose SRB assay; type: cell-based; conditions: Homo sapiens, IGROV-1; IGROV1, Ovarian cancer, five-dose test
Experimental: as §1

MCF7 = experiment: NCI-60 five-dose SRB assay; type: cell-based; conditions: Homo sapiens; MCF7, Breast cancer, five-dose test
Experimental: as §1

SF-539 = experiment: NCI-60 five-dose SRB assay; type: cell-based; conditions: Homo sapiens; SF-539, CNS cancer, five-dose test
Experimental: as §1

UACC-62 = experiment: NCI-60 five-dose SRB assay; type: cell-based; conditions: Homo sapiens; UACC-62, Melanoma, five-dose test
Experimental: as §1

HCT-15 = experiment: NCI-60 five-dose SRB assay; type: cell-based; conditions: Homo sapiens; HCT-15, Colon cancer, five-dose test
Experimental: as §1

UO-31 = experiment: NCI-60 five-dose SRB assay; type: cell-based; conditions: Homo sapiens; UO-31, Renal cancer, five-dose test
Experimental: as §1

CAKI-1 = experiment: NCI-60 five-dose SRB assay; type: cell-based; conditions: Homo sapiens; CAKI-1, Renal cancer, five-dose test
Experimental: as §1

NCI-H522 = experiment: NCI-60 five-dose SRB assay; type: cell-based; conditions: Homo sapiens; NCI-H522, NSCL cancer, five-dose test
Experimental: as §1

HCT-116 = experiment: NCI-60 five-dose SRB assay; type: cell-based; conditions: Homo sapiens; HCT-116, Colon cancer, five-dose test
Experimental: as §1

HS 578T = experiment: NCI-60 five-dose SRB assay; type: cell-based; conditions: Homo sapiens, Breast cancer, five-dose test
Experimental: as §1

MALME-3M = experiment: NCI-60 five-dose SRB assay; type: cell-based; conditions: Homo sapiens, Melanoma, five-dose test
Experimental: as §1

K-562 = experiment: NCI-60 five-dose SRB assay; type: cell-based; conditions: Homo sapiens, K562; K-562, Leukemia, five-dose test
Experimental: as §1

MOLT-4 = experiment: NCI-60 five-dose SRB assay; type: cell-based; conditions: Homo sapiens; MOLT-4, Leukemia, five-dose test
Experimental: as §1

HT29 = experiment: NCI-60 five-dose SRB assay; type: cell-based; conditions: Homo sapiens, HT-29; HT29, Colon cancer, five-dose test
Experimental: as §1

SF-295 = experiment: NCI-60 five-dose SRB assay; type: cell-based; conditions: Homo sapiens; SF-295, CNS cancer, five-dose test
Experimental: as §1

MDA-MB-435 = experiment: NCI-60 five-dose SRB assay; type: cell-based; conditions: Homo sapiens; MDA-MB-435, Melanoma, five-dose test
Experimental: as §1

T-47D = experiment: NCI-60 five-dose SRB assay; type: cell-based; conditions: Homo sapiens, T47D, Breast cancer, five-dose test
Experimental: as §1

SR = experiment: NCI-60 five-dose SRB assay; type: cell-based; conditions: Homo sapiens, Leukemia, five-dose test
Experimental: as §1

B-RAF^V600E = molecular target: T1, B-RAF^V600E (Homo sapiens, UniProt P15056, V600E); experiment: HotSpot kinase assay (RBC), B-RAF^V600E; type: biochemical; conditions: 10 µM ATP, 10-dose singlicate IC50 mode
T1 construct: purchased Reaction Biology Corporation (RBC), Kinase HotSpot service
T1 sequence (P15056 whole entry V600E): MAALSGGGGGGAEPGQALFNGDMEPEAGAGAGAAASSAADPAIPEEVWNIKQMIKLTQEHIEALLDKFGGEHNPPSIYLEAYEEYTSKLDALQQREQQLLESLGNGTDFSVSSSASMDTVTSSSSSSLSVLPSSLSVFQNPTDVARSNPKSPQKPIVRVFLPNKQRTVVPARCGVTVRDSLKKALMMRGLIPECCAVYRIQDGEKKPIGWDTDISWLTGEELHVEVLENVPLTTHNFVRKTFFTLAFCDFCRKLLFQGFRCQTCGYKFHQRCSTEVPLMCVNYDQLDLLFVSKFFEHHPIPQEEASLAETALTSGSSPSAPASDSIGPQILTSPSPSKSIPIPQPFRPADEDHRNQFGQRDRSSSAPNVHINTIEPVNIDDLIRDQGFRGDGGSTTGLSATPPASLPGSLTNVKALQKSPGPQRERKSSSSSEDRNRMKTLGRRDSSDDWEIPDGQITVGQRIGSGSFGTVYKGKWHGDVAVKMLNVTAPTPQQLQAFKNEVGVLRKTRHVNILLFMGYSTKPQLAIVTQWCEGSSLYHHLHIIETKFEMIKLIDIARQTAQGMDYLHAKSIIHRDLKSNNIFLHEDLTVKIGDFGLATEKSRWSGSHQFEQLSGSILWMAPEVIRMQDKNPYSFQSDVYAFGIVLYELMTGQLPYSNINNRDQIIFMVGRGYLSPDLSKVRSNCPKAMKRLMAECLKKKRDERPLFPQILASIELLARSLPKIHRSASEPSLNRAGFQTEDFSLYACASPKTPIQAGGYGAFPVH

C-RAF = C-RAF (Homo sapiens, UniProt P04049); experiment: HotSpot kinase assay (RBC), C-RAF; conditions: IC50 C-RAF, 10 µM ATP, 10-dose singlicate IC50 mode
Sequence of C-RAF (P04049 whole entry): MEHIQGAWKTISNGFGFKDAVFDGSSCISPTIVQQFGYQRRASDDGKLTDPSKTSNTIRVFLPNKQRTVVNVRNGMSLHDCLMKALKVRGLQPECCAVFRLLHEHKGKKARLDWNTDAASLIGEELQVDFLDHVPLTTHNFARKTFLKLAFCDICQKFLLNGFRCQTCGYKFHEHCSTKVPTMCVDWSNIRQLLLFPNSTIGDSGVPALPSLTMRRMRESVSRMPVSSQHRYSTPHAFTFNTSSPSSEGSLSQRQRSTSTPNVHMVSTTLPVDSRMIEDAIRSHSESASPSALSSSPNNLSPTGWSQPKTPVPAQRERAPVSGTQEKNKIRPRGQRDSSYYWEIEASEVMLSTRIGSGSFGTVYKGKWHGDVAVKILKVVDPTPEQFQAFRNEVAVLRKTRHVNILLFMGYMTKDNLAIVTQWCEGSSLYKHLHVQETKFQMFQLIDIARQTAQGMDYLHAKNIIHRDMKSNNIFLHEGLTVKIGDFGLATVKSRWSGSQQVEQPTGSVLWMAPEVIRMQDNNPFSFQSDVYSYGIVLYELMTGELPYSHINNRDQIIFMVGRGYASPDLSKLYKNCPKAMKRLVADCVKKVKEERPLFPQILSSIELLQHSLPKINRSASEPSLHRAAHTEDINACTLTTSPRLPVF
Text: Reaction Biology Corporation (RBC) Kinase HotSpotSM service was utilized for cell-free biochemical kinase evaluation of the target compounds according to the reported assay protocol [46].

MDA-MB-231/ATCC = experiment: cells; conditions: Homo sapiens
Experimental: as §1

PC-3 = experiment: cells; conditions: Homo sapiens
Experimental: as §1

MDA-MB-468 = experiment: cells; conditions: Homo sapiens
Experimental: as §1

SMILES: COc1cccc2nc(Nc3cccc(NC(=O)c4ccc(CN5CCN(C)CC5)c(C(F)(F)F)c4)c3)ccc12 [Compound 14a, 4-((4-methylpiperazin-1-yl)methyl)-N-(3-((5-methoxyquinolin-2-yl)amino)phenyl)-3-(trifluoromethyl)benzamide]
- GI50 (SNB-19): 1780 nM
- GI50 (HL-60(TB)): 1220 nM
- GI50 (SW-620): 1730 nM
- GI50 (DU-145): 1980 nM
- GI50 (KM12): 2130 nM
- GI50 (RPMI-8226): 2780 nM
- GI50 (HOP-92): 1500 nM
- GI50 (TK-10): 2150 nM
- GI50 (SK-MEL-2): 3520 nM
- GI50 (A549/ATCC): 2440 nM
- GI50 (NCI-H322M): 2290 nM
- GI50 (ACHN): 2050 nM
- GI50 (M14): 1760 nM
- GI50 (LOX IMVI): 1740 nM
- GI50 (BT-549): 7010 nM
- GI50 (SF-268): 1690 nM
- GI50 (SK-MEL-5): 1620 nM
- GI50 (NCI-H226): 4630 nM
- GI50 (HOP-62): 1560 nM
- GI50 (IGROV1): 2250 nM
- GI50 (MCF7): 1570 nM
- GI50 (SF-539): 1640 nM
- GI50 (UACC-62): 1750 nM
- GI50 (HCT-15): 1780 nM
- GI50 (UO-31): 1640 nM
- GI50 (CAKI-1): 1810 nM
- GI50 (NCI-H522): 1790 nM
- GI50 (HCT-116): 1820 nM
- GI50 (HS 578T): 1840 nM
- GI50 (MALME-3M): 1650 nM
- GI50 (K-562): 2700 nM
- GI50 (MOLT-4): 1450 nM
- GI50 (HT29): 1860 nM
- GI50 (SF-295): 1770 nM
- GI50 (MDA-MB-435): 1680 nM
- GI50 (T-47D): 2280 nM
- GI50 (SR): 1850 nM
- IC50 (B-RAF^V600E): 498 ± 35.8 nM
- IC50 (C-RAF): 151 ± 2.35 nM
- GI50 (MDA-MB-231/ATCC): 1770 nM
- GI50 (PC-3): 1700 nM
- GI50 (MDA-MB-468): 1920 nM

SMILES: COc1cccc2nc(Nc3cccc(NC(=O)c4ccc(CN5CCCN(C)CC5)c(C(F)(F)F)c4)c3)ccc12 [Compound 14b, N-(3-((5-methoxyquinolin-2-yl)amino)phenyl)-4-((4-methyl-1,4-diazepan-1-yl)methyl)-3-(trifluoromethyl)benzamide]
- GI50 (SNB-19): 1720 nM
- GI50 (HL-60(TB)): 1650 nM
- GI50 (SW-620): 1750 nM
- GI50 (DU-145): 2190 nM
- GI50 (KM12): 2490 nM
- GI50 (RPMI-8226): 1930 nM
- GI50 (TK-10): 4910 nM
- GI50 (SK-MEL-2): 2150 nM
- GI50 (A549/ATCC): 1900 nM
- GI50 (NCI-H322M): 2120 nM
- GI50 (ACHN): 1870 nM
- GI50 (M14): 1810 nM
- GI50 (LOX IMVI): 1680 nM
- GI50 (BT-549): 2060 nM
- GI50 (SF-268): 1770 nM
- GI50 (SK-MEL-5): 1710 nM
- GI50 (NCI-H226): 1940 nM
- GI50 (HOP-62): 1760 nM
- GI50 (IGROV1): 1810 nM
- GI50 (MCF7): 1590 nM
- GI50 (SF-539): 1550 nM
- GI50 (UACC-62): 1810 nM
- GI50 (HCT-15): 1620 nM
- GI50 (UO-31): 1740 nM
- GI50 (CAKI-1): 1720 nM
- GI50 (NCI-H522): 1760 nM
- GI50 (HCT-116): 1670 nM
- GI50 (HS 578T): 2460 nM
- GI50 (MALME-3M): 1720 nM
- GI50 (K-562): 1230 nM
- GI50 (MOLT-4): 1240 nM
- GI50 (HT29): 1660 nM
- GI50 (SF-295): 1740 nM
- GI50 (MDA-MB-435): 1800 nM
- GI50 (T-47D): 5430 nM
- IC50 (B-RAF^V600E): 355 ± 10.8 nM
- IC50 (C-RAF): 192 ± 0.6 nM
- GI50 (MDA-MB-231/ATCC): 1830 nM
- GI50 (PC-3): 1540 nM
- GI50 (MDA-MB-468): 1560 nM
